# Source: patent publication US6143759A, “Tetrazoles” (BYK Gulden Lomberg Chemische Fabrik GmbH, priority 1997, dated 2000)
# Structures can show the parent of a compound that is named as a salt.
# Key:
# PDE3 = target: T1, PDE3 (Homo sapiens, UniProt Q14432); assay: Inhibition of PDE isoenzymes: PDE3 (cGMP-inhibited), homogenates of human blood platelets; type: biochemical; conditions: cAMP or cGMP as substrate, 0.5 μM, pH 7.4, 37° C., 15 min; for IC50: read-out: PDE3 -log IC50 (converted)
# T1 construct: were investigated in homogenates of human blood platelets; from tissue; host or cells: homogenates of human blood platelets
# T1 sequence (Q14432 whole entry): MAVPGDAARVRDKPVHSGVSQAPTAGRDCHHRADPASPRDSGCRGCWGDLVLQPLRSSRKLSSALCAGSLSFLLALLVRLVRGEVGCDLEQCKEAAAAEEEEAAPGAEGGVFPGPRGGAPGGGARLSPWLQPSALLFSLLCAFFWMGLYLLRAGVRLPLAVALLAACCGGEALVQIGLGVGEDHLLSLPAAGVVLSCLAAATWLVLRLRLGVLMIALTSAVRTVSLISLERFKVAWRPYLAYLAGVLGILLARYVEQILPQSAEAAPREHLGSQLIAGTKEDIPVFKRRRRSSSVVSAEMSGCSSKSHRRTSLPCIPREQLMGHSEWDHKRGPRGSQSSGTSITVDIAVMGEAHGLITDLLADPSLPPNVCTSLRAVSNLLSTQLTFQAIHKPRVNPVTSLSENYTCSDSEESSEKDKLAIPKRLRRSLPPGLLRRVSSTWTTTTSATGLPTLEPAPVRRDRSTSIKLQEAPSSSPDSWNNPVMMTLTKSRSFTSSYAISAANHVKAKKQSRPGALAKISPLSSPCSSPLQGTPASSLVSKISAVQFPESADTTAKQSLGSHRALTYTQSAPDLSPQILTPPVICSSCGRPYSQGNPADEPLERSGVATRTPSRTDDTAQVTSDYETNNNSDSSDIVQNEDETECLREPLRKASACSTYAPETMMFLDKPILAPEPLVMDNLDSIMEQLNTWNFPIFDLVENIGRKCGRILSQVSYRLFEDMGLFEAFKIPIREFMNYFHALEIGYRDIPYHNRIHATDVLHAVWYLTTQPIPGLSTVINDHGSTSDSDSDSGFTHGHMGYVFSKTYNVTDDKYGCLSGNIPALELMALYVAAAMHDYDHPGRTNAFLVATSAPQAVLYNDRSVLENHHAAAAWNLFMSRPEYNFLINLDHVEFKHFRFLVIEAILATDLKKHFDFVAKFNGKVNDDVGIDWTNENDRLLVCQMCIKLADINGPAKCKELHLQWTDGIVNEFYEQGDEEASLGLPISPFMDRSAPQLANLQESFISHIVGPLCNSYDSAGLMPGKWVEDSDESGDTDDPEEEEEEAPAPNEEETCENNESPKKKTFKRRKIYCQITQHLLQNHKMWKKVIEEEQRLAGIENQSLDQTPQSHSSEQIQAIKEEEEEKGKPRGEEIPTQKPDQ
# PDE4 = assay: Inhibition of PDE isoenzymes: PDE4 (cAMP-specific), cytosol of human polymorphonuclear leukocytes, cAMP as substrate; type: biochemical; conditions: cytosol of human PMNL; 0.5 μM cAMP; motapizone (1 μM) present; pH 7.4, 37° C., 15 min
SMILES,IC50 (PDE3),PDE4 -log IC50 (PDE4),PDE3 -log IC50 (PDE3)
"CCCn1nnc(-c2ccc(C3=N[C@H]4CCN(C)C[C@H]4c4cc(OCC)c(OC)cc43)cc2)n1 (single isomer, unassigned) [Compound 16, (-)-cis-9-Ethoxy-8-methoxy-2-6-[4-(2H-2-propyltetrazol-5-yl)-phenyl]-1,2,3,4,4a,10b-hexahydrobenzo[c][1.6]naphthyridine hydrochloride]",0.219 µM,7.94 mol/l,
"CCOc1cc2c(cc1OC)C(c1cccc(-c3nnn(CC)n3)c1)=N[C@H]1CCN(C)C[C@@H]21 (single isomer, unassigned) [Compound 12, (-)-cis-9-Ethoxy-8-methoxy-2-methyl-6-[3-(2H-2-ethyltetrazol-5-yl)-phenyl]-1,2,3,4,4a,10b-hexahydrobenzo[c][1.6]naphthyridine hydrochloride]",0.708 µM,7.82 mol/l,
"CCCCCCn1nnc(-c2ccc(C3=N[C@H]4CCN(C)C[C@H]4c4cc(OCC)c(OC)cc43)cc2)n1 (single isomer, unassigned) [Compound 15, (-)-cis-9-Ethoxy-8-methoxy-2-methyl-6-[4-(2H-2-hexyltetrazol-5-yl)-phenyl]-1,2,3,4,4a,10-hexahydrobenzo[c][1.6]naphthyridine hydrochloride]",0.631 µM,8.24 mol/l,
"COc1cc2c(cc1OC)[C@@H]1CN(C)CC[C@@H]1N=C2c1ccc(-c2nnn(C)n2)cc1 (single isomer, unassigned) [Compound 4, (-)-cis-8,9-Dimethoxy-2-methyl-6-[4-(2H-2-methyltetrazol-5-yl)phenyl]-1,2,3,4,4a,10b-hexahydrobenzo[c][1,6]naphthyridine]",0.355 µM,5.92 mol/l,
"CCOc1cc2c(cc1OC)C(c1ccc(-c3nnn(CC)n3)cc1)=N[C@H]1CCN(C)C[C@@H]21 (single isomer, unassigned) [Compound 9, (-)-(cis)-9-Ethoxy-8-methoxy-2-methyl-6-[4-(2H-2-ethyltetrazol-5-yl)phenyl]-1,2,3,4,4a,10b-hexahydrobenzo[c][1.6]naphthyridine]",0.148 µM,7.96 mol/l,
"CCOc1cc2c(cc1OCC)[C@@H]1CN(C)CC[C@@H]1N=C2c1ccc(-c2nnn(CC)n2)cc1 (single isomer, unassigned) [Compound 3, (-)-cis-8,9-Diethoxy-2-methyl-6-[4-(2H-2-ethyltetrazol-5-yl)phenyl]-1,2,3,4,4a,10b-hexahydrobenzo[c][1,6]naphthyridine hydrochloride]",0.209 µM,7.64 mol/l,
"CCOc1cc2c(cc1OCC)[C@@H]1CN(C)CC[C@@H]1N=C2c1ccc(-c2nn[nH]n2)cc1 (single isomer, unassigned) [Compound 17, (-)-cis-8.9-Diethoxy-2-methyl-6-[4-(1H- and 2H-2-tetrazol-5-yl)-phenyl]-1,2,3,4,4a,10b-hexahydrobenzo[c][1.6]naphthyridine]",0.195 µM,7.44 mol/l,
"CCOc1cc2c(cc1OCC)[C@@H]1CN(C)CC[C@@H]1N=C2c1ccc(-c2nnn(CC3CCCCC3)n2)cc1 (single isomer, unassigned) [Compound 8, (-)-cis-8,9-Diethoxy-2-methyl-6-[4-(2H-2-cyclohexylmethyltetrazol-5-yl)phenyl]-1,2,3,4,4a,10b-hexahydrobenzo[c][1,6]naphthyridine hydrochloride]",0.309 µM,7.64 mol/l,
"CCOc1cc2c(cc1OCC)[C@@H]1CN(C)CC[C@@H]1N=C2c1cccc(-c2nnn(CC)n2)c1 (single isomer, unassigned) [Compound 11, (-)-cis-8,9-Diethoxy-2-methyl-6-[3-(2H-2-ethyltetrazol-5-yl)-phenyl]-1,2,3,4,4a,10b-hexahydrobenzo[c][1,6]naphthyridine hydrochloride]",,7.40 mol/l,5.66 mol/l
"CCOc1cc2c(cc1OCC)[C@@H]1CN(C)CC[C@@H]1N=C2c1ccc(-c2nnn(Cc3ccc(OC)cc3)n2)cc1 (single isomer, unassigned) [Compound 5, (-)-cis-8,9-Diethoxy-2-methyl-6-[[4-[2H-2-(4-methoxybenzyl)tetrazol-5-yl]-phenyl]]-1,2,3,4,4a,10b-hexahydrobenzo[c][1,6]naphthyridine hydrochloride]",0.204 µM,8.03 mol/l,
"CCn1nnc(-c2ccc(C3=N[C@H]4CCN(C)C[C@H]4c4cc(OC)c(OC)cc43)cc2)n1 (single isomer, unassigned) [Compound 2, (-)-cis-8,9-Dimethoxy-2-methyl-6-[4-(2H-2-ethyltetrazol-5-yl)phenyl]-1,2,3,4,4a,10b-hexahydrobenzo[c][1,6]naphthyridine hydrochloride]",0.457 µM,6.13 mol/l,
"COc1ccc(Cn2nnc(-c3ccc(C4=N[C@H]5CCN(C)C[C@H]5c5cc(OC)c(OC)cc54)cc3)n2)cc1 (single isomer, unassigned) [Compound 7, (-)-cis-8,9-Dimethoxy-2-methyl-6-[[4-[2H-2-(4-methoxybenzyl)tetrazol-5-yl]phenyl]]-1,2,3,4,4a,10b-hexahydrobenzo[c][1,6]naphthyridine hydrochloride]",0.148 µM,6.74 mol/l,
"COc1cc2c(cc1OC)[C@@H]1CN(C)CC[C@@H]1N=C2c1ccc(-c2nn[nH]n2)cc1 (single isomer, unassigned) [Compound 1, (-)-cis-8,9-Dimethoxy-2-methyl-6-[4-(1H- and 2H-tetrazol-5-yl)phenyl]-1,2,3,4,4a,10b-hexahydrobenzo[c][1,6]naphthyridine]",0.166 µM,6.42 mol/l,
"CCOc1cc2c(cc1OCC)[C@@H]1CN(C)CC[C@@H]1N=C2c1ccc(-c2nnn(C)n2)cc1 (single isomer, unassigned) [Compound 6, (-)-cis-8,9-Diethoxy-2-methyl-6-[4-(2H-2-methyltetrazol-5-yl)phenyl]-1,2,3,4,4a,10b-hexahydrobenzo[c][1,6]naphthyridine hydrochloride]",,7.26 mol/l,6.52 mol/l
"CCOc1cc2c(cc1OC)[C@@H]1CN(C)CC[C@@H]1N=C2c1ccc(-c2nnn(CC)n2)cc1 (single isomer, unassigned) [Compound 10, (-)-cis-8-Ethoxy-9-methoxy-2-methyl-6-[4-(2H-2-ethyltetrazol-5-yl)-phenyl]-1,2,3,4,4a,10b-hexahydrobenzo[c][1.6]naphthyridine hydrochloride]",0.275 µM,6.08 mol/l,
"CCOc1cc2c(cc1OC)C(c1ccc(-c3nn[nH]n3)cc1)=N[C@H]1CCN(C)C[C@@H]21 (single isomer, unassigned) [Compound 18, (-)-cis-9-Ethoxy-8-methoxy-2-methyl-6-[4-(1H- and 2H-2-tetrazol-5-yl)-phenyl]-1,2,3,4,4a,10b-hexahydrobenzo[c][1.6]naphthyridine]",0.145 µM,7.81 mol/l,
